Assay results as given in patent publication US20230302021A1, “COMPOSITIONS AND METHODS FOR TREATING CASTRATION-RESISTANT PROSTATE CANCER” (Purdue Research Foundation, priority 2022, published 2023).

Assays:
[1] = tested on: 22RV1 cells; experiment: Cell proliferation / viability (MTT) assay; format: cell-based; details: for proliferation of 22RV1 cells: ENZ-resistant 22RV1 cells, FIG. 1
Procedure: Cell viability assay: An MTT assay was performed to evaluate the effect of drugs on cell viability. Ten thousand cells per well were plated in a 96-well plate and treated with drugs the following day. The MTT solution (0.5 mg/ml) was then applied to the cells for 1 h at 37° C. with 5% CO2. Precipitated formazan was dissolved in DMSO and quantified at 570 nm using a microplate reader (Beckman-Coulter). Combination index: The data obtained from the MTT assay were used to calculate cell viability and also used to calculate combination index (CI). The Chou-Talalay method was applied to determine the CI using CompuSyn software (Biosoft).

[2] = tested on: AR signaling; experiment: qPCR of genes related to AR signaling in 22RV1 cells; format: cell-based; details: 20 μM ENZ in presence or absence of 4 μM avasimibe, 24 h
[3] = rats, dogs, and humans; cited from earlier work
[4] = tested on: 22RV1-derived xenograft; experiment: 22RV1-derived mouse xenograft model; format: in vivo; details: castrated nude mice, daily for 3 weeks; ENZ 25 mg/kg/day oral gavage, AVA 20 mg/kg/day intraperitoneal
Procedure: All procedures were approved by the Purdue Animal Care and Use Committee. Five-week-old male nude mice (Jackson Laboratory) were purchased for the experiment. […] ENZ stock prepared in DMSO was diluted in corn oil for oral gavage and AVA solution was prepared. Once the tumors reached approximately 50-100 mm^3, the mice were randomly divided into four groups for daily drug administration for 3 weeks: (i) vehicle oral gavage (corn oil)+vehicle intraperitoneal injection (2% tween-80 (v/v) and 3.2 mg/mL 2-hydroxypropyl-β-cyclodextrin in PBS); (ii) ENZ alone (25 mg/kg body weight/day) by oral gavage; (iii) AVA alone (20 mg/kg body weight/day) by intraperitoneal injection; (iv) ENZ (25 mg/kg/day)+AVA (20 mg/kg/day). Tumors were monitored every two days with a caliper and tumor volumes were calculated with the formula V=0.5×L×W^2 (where V is volume, L is length, W is the width). At the end of the study, mice were euthanized and tumor tissues were excised and weighted.

[5] = molecular target: T1, SOAT1 (Homo sapiens, UniProt P35610); details: cited from earlier work
T1 sequence (P35610 1-550): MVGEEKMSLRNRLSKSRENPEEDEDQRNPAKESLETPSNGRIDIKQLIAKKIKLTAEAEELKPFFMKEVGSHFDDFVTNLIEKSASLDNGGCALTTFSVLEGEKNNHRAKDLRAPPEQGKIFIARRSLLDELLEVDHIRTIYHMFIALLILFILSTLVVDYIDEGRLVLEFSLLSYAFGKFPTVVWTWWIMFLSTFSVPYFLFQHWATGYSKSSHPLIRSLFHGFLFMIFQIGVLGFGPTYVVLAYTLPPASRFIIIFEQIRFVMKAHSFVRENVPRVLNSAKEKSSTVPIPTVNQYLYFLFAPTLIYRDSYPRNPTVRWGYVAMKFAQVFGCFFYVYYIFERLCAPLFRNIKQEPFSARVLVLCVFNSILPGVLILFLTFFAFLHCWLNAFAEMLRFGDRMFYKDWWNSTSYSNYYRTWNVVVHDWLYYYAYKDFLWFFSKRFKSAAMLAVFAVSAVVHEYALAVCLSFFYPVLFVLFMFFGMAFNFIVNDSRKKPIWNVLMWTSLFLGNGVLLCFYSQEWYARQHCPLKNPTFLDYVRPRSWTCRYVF

SMILES	proliferation of 22RV1 cells [1]	AR expression (mRNA) [2]	AR-V7 expression (mRNA) [2]	Nkx3.1 expression (mRNA) [2]	Psa expression (mRNA) [2]	safety when administered [3]	tumor growth (appearance, average tumor volume, tumor weight) [4]	IC50 [5]	proliferation of shRNA-transfected 22RV1 cells ([1]; shCTRL or shSOAT1 with DMSO or ENZ, FIG. 5B)	IC50 value for SOAT1 relative to the corresponding IC50 value for SOAT2 ([5]; SOAT1 vs SOAT2 selectivity)
CC(C)c1cc(C(C)C)c(CC(=O)NS(=O)(=O)Oc2c(C(C)C)cccc2C(C)C)c(C(C)C)c1 [AVA, avasimibe]	slightly suppressed cell proliferation	did not change	did not change	downregulated	downregulated	considered safe	did not sufficiently delay the tumor growth	24 µM		
CNC(=O)c1ccc(N2C(=S)N(c3ccc(C#N)c(C(F)(F)F)c3)C(=O)C2(C)C)cc1F [ENZ, enzalutamide]	resistant						did not sufficiently delay the tumor growth		little effect on the proliferation	
CCOC(=O)OC(=O)OCC [pyrocarbonate, diethyl pyrocarbonate]										at least twice or higher
